# Measured values from patent publication US11185548B2, “Inhibitors of cytochrome P450 family 7 subfamily B member 1 (CYP7B1) for use in treating diseases” (HELMHOLTZ ZENTRUM MÜNCHEN—DEUTSCHES FORSCHUNGSZENTRUM FÜR …, priority 2016, dated 2021).
# “Also recorded” adds a separate entry of the source.
# Key:
# [1] = test system: IgM cross-linked splenic B cells; experiment: ex vivo B cell migration assay towards medium from CSE treated airways; format: cell-based, mouse; conditions: 10% CSE
# Description: (§1) Middle and distal airways from C57BL/6J and Ch25h^−/− mice were isolated and incubated ex vivo as described by Yildirim et al. (Eur Respir J 32, 694-704 (2008)). Briefly, after sacrifice by a ketamine-xylazine over dose, the trachea was cannulated, the lungs removed from the thorax and infused with 1% low-melting agarose dissolved in 1:1 Ham's F12 nutrient medium (Sigma-Aldrich) and distilled water (Gibco, Life Technologies). Airways were dissected under a microscope (Zeiss) from the left lung after the agarose had solidified on ice for 30 min. The isolated airways were washed and cultured in airway epithelial cell medium (PromoCell) at 37° C., 5% CO2.
# B cells were purified from the spleens of C57BL/6J mice by negative selection (B cell Isolation Kit, mouse, Miltenyi Biotec). For the migration assay, primary mouse airways were isolated 1 day prior, treated with 10% cigarette smoke extract (CSE) in airway epithelial cell culture medium or culture medium alone for 24 h and at the same time to inhibit Cyp7b1, clotrimazole was also diluted with culture medium to a final concentration of 1 μM for 1 h prior to the migration assay. […] The supernatants were transferred as conditioned medium to the lower well of 24-well transwell plates (Permeable Polycarbonate Membrane Inserts, Corning, Fisher Scientific), for inducing B cell migration, while the airway samples were snap frozen in liquid nitrogen for RNA isolation. Freshly isolated B cells at 2.5×10^6/ml in 100 μl were activated by unconjugated AffiniPure F(ab′)2 Fragment Goat anti-mouse IgM, μchain specific antibody (1.3 μg/ml, 115-006-020, Jackson Immunoresearch Laboratories) for 1 hr at 37° C. in 5.0 μm pore sized transwell inserts (Permeable Polycarbonate Membrane Inserts, Corning, Fisher Scientific). Transwell inserts were then placed into the wells of conditioned medium and incubated for 3 hr at 37° C. Migrated B cells were collected and counted by Neubauer Chamber and reported as percentage of input.
# Ch25h mRNA = experiment: quantitative real time RT-PCR of CSE treated airways: Ch25h; format: cell-based, mouse; conditions: CSE treated airways dissected from C57BL/6 mice, 1 μM clotrimazole
# Description: (§2) 1 ug RNA was reverse transcribed using Random Hexamers and MuLV Reverse Transcriptase (Applied Biosystems). Gene expression was analyzed using SensiFAST SYBR Hi-ROX Kit (Bioline) on a StepOnePlus 96 well Real-Time PCR System (Applied Biosystems). Primer sequences can be found in Table 1. Expression of each gene was calculated relative to the housekeeping gene HPRT1 or Hprt1 as 2^−[…]Ct.
# as §1
# (§3) B cells were purified from the spleens of C57BL/6J mice by negative selection (B cell Isolation Kit, mouse, Miltenyi Biotec). […] Migrated B cells were collected and counted by Neubauer Chamber and reported as percentage of input.
# Cyp7b1 mRNA = experiment: quantitative real time RT-PCR of CSE treated airways: Cyp7b1; format: cell-based, mouse; conditions: CSE treated airways dissected from C57BL/6 mice, 1 μM clotrimazole
# Description: as §2, §1, §3
# Ch25h expression = experiment: gene expression after 10% CSE + LPS stimulation: Ch25h; format: cell-based, mouse; conditions: 10% CSE + 10 μg/mL LPS
# Description: (§4) The cells were incubated for 24h at 37° C., 5% CO2, in a 24 well-plate with or without 10% cigarette smoke extract (CSE, 10%)+lipopolysaccharide (LPS, 10 μg/mL), supplemented or not with the 18 CYP7B1 inhibitors (0.3 and 1 μM). B cells were purified from the spleens of C57BL/6J mice by negative selection (B cell Isolation Kit, mouse, Miltenyi Biotec). Freshly isolated B cells at 2.0×10^6/mL in 100 μL were activated by unconjugated AffiniPure F(ab′)2 Fragment Goat anti-mouse IgM, μchain specific antibody (10 μg/mL, 115-006-020, Jackson Immunoresearch Laboratories) for 1 hr at 37° C. in 5.0 μm pore sized transwell inserts (Permeable Polycarbonate Membrane Inserts, Corning, Fisher Scientific). Migrated B cells were collected, and counted by fluorescence-activated cell sorting (FACS) (Trucount tubes, BD Biosciences).
# as §2, with “10 ng” for “1 ug”, “Primer sequences can be found in Table 1.” left out, “18S” for “HPRT1 or Hprt1”, “2^−ΔCt.” for “2^−[…]Ct.”
# Cyp7b1 expression = experiment: gene expression after 10% CSE + LPS stimulation: Cyp7b1; format: cell-based, mouse; conditions: 10% CSE + 10 μg/mL LPS
# Description: as §4
# as §2, with “10 ng” for “1 ug”, “Primer sequences can be found in Table 1.” left out, “18S” for “HPRT1 or Hprt1”, “2^−ΔCt.” for “2^−[…]Ct.”
# Tnf expression = experiment: gene expression after 10% CSE + LPS stimulation: Tnf; format: cell-based, mouse; conditions: 10% CSE + 10 μg/mL LPS
# Description: as §4
# as §2, with “10 ng” for “1 ug”, “Primer sequences can be found in Table 1.” left out, “18S” for “HPRT1 or Hprt1”, “2^−ΔCt.” for “2^−[…]Ct.”
# [2] = test system: C57BL/6 mice exposed to cigarette smoke; experiment: CS induced COPD model, clotrimazole therapeutic dosing; format: in vivo, mouse
# Description: Experimental design: In the early treatment group C57BL/6 mice were exposed to filtered air (FA) or cigarette smoke (CS) for 4 months and treated with clotrimazole (i.p. 80 mg/Kg 3 times per week) from months 2 to 4 or oil controls. In the late treatment group C57BL/6 mice were exposed to FA or CS for 6 months and treated with clotrimazole from months 4 to 6 or oil controls.
# 8-12 week old mice were used in all experiments. For the CS induced COPD model, mice were exposed to 100% mainstream CS (John et al., Clinical science 126, 207-221 (2014)) at a particle concentration of 500 mg/m^3, generated from 3R4F research cigarettes (Filter removed, Tobacco Research Institute, University of Kentucky), for 50 min twice/day, 5 days/week for 4 or 6 months. Mice exposed to filtered air were used as controls. For the elastase induced iBALT-independent COPD model, mice were instilled oropharyngeally with a single application of 80 U/Kg body weight Porcine Pancreatic Elastase (PPE) (Sigma Aldrich) in 80 μl PBS. Mice treated with 80 μl PBS were included as controls. For Cyp7b1 inhibition, clotrimazole (Sigma Aldrich) 10 mM in DMSO, was further diluted in Corn oil (Mazola, Unilever) and applied i.p. at a dose of 80 mg/Kg body weight 3 times/week for two months. Mice were treated after two or four months of CS exposure and smoked for a further two months in parallel with the clotrimazole treatment.
# After lung function analysis lungs were lavaged with 3×500 ul aliquots of sterile PBS (Gibco, Life Technologies) supplemented with Complete Protease Inhibitor Cocktail tablets (Roche Diagnostics). Cells were pelleted at 400 g for 20 min and resuspended in 500 μl RPMI-1640 medium (Gibco, Life Technologies) for the total cell count using a Neubauer Chamber. Cytospins of the cell suspension were then prepared and stained using May-Grünwald-Giemsa for differential cell counting (200 cells/sample) using morphological criteria. BAL fluid was retained for mass spectrometry analysis.
# H&E stained tissue sections were analyzed by design-based stereology using an Olympus BX51 light microscope equipped with the new Computer Assisted Stereological Toolbox (newCAST, Visiopharm) as described (John-Schuster et al., American journal of physiology. Lung cellular and molecular physiology 307, L692-706 (2014)), by readers blinded to the study groups. Briefly, for mean chord length (MCL) measurements, 20 frames were selected randomly across multiple sections by the software, using the ×20 objective, and superimposed by a line grid and points. The intercepts of lines on alveolar wall (Lsepta) and points localized on air space (Pair) were counted and calculated as MCL=ΣPair××L(p)/ΣLsepta×0.5, where L(p) is the line length per point. The volume of inflammation (V) was quantified in 50 frames, using the ×40 objective, by counting points hitting inflammatory cell zones (Pinflam). For calculation, the Pinflam were referenced to intercepts of lines with both airways and vessels (Iairway/vessel): V=ΣPinflam×L(p)/ΣIairway/vessel. Further, airway, vessel or septum associated inflammation quantification was classified by the location of the inflammation, and was calculated referring to intercept of lines with airway, vessel, or both, respectively.
# [3] = early and late treatment groups, i.p. 80 mg/Kg 3 times per week
# [4] = early treatment: CS 4 months, i.p. 80 mg/Kg 3 times per week from months 2 to 4
# [5] = late treatment: CS 6 months, i.p. 80 mg/Kg 3 times per week from months 4 to 6
compound,measurement,setting,value
"Clc1ccc(COC(Cn2ccnc2)c2ccc(Cl)cc2Cl)c(Cl)c1 (racemic) [Miconazole, (RS)-1-(2-(2,4-Dichlorobenzyloxy)-2-(2,4-dichlorophenyl)ethyl)-1H-imidazole]",migration of activated B cells towards culture supernatant from CSE-treated airways,[1]; compound 1 μM,impaired B cell migration
"CC(C)(C(=O)c1cccnc1)c1cccnc1 [Metyrapone, 2-methyl-1,2-di(pyridin-3-yl)propan-1-one]",migration of activated B cells towards culture supernatant from CSE-treated airways,[1]; compound 1 μM,impaired B cell migration
"CC(C)c1nc(CN(C)C(=O)N[C@H](C(=O)N[C@@H](Cc2ccccc2)C[C@H](O)[C@H](Cc2ccccc2)NC(=O)OCc2cncs2)C(C)C)cs1 [Ritonavir, 1,3-thiazol-5-ylmethyl N-[(2S,3S,5S)-3-hydroxy-5-[(2S)-3-methyl-2-{[methyl({[2-(propan-2-yl)-1,3-thiazol-4-yl]methyl})carbamoyl]amino}butanamido]-1,6-diphenylhexan-2-yl]carbamate]",migration of activated B cells towards culture supernatant from CSE-treated airways,[1]; compound 0.1 μM,impaired B cell migration
same,migration of activated B cells towards culture supernatant from CSE-treated airways,[1]; compound 1 μM,impaired B cell migration
"Clc1ccccc1C(c1ccccc1)(c1ccccc1)n1ccnc1 [clotrimazole, 1-[(2-Chlorophenyl)(diphenyl)methyl]-1H-imidazole]",migration of activated B cells towards culture supernatant from CSE-treated airways,[1]; compound 1 μM,significantly impaired the ability of activated B cells to migrate; also recorded: impairs B cell migration
same,Ch25h mRNA abundance,Ch25h mRNA,did not affect Ch25h levels
same,Cyp7b1 mRNA abundance,Cyp7b1 mRNA,sufficient to reduce Cyp7b1 mRNA expression
same,induction of Ch25h expression,Ch25h expression,inhibited
same,induction of Ch25h expression,Ch25h expression; listed as Clotrimazole,inhibits the gene expression
same,induction of Cyp7b1 expression,Cyp7b1 expression,inhibited
same,induction of Cyp7b1 expression,Cyp7b1 expression; listed as Clotrimazole,inhibits the gene expression
same,induction of Tnf (TNFα) expression,Tnf expression,inhibited
same,induction of Tnf (TNFα) expression,Tnf expression; listed as Clotrimazole,inhibits the gene expression
same,cigarette smoke-induced COPD,[2]; [3],protects against and reverses cigarette smoke-induced COPD
same,lung inflammatory responses following exposure to chronic cigarette smoke,[2]; [3],does not attenuate lung inflammatory responses
same,emphysema development (mean chord length),[2]; [4],lack of emphysema development
same,iBALT formation,[2]; [4],significantly reduced iBALT formation
same,lung volume,[2]; [4],no deterioration in lung volume
same,lymphocyte cell numbers in BAL fluid,[2]; [4],reduced macrophage and lymphocyte cell numbers
same,macrophage cell numbers in BAL fluid,[2]; [4],reduced macrophage and lymphocyte cell numbers
same,emphysema (mean chord length),[2]; [5],attenuated
same,iBALT,[2]; [5],attenuated
same,lung volume,[2]; [5],reduced lung volume
same,macrophage cell numbers in BAL fluid,[2]; [5],reduced macrophage cell numbers
